{
  "source": "patent US20260137807A1",
  "about": "“COMPOSITIONS AND METHODS FOR DELIVERING A MACROMOLECULE TO A CELL” (AstraZeneca AB, priority 2022, published 2026)",
  "key": {"[1]": {"assay": "Nanoparticle tracking analysis (NTA)", "format": "physicochemical", "conditions": "1 μm or 5 μm oligonucleotide incubated with 5 μm AZ4800 for 2 hours", "experimental": "Many SSO transfection reagents work through complexation or association with the SSO. A nanoparticle tracking analysis (NTA) was performed to determine whether Compound 2 induced aggregation of oligonucleotides in cell media.\nSSO was incubated in cell growth media with and without Compound 2 at 37° C. for 2 hours, mimicking the treatment plan shown in FIG. 10. Analysis was carried out with a Nanosight NS500 instrument running NTA 2.3 analytical software. A script that records 5×30 second videos in light-scatter mode was run with a camera level of 13. Analysis of the videos was then performed with screen gain set to 10 and a detection threshold at 7."}, "HeLa_Luc705 cells": {"test_system": "HeLa_Luc705 cells", "assay": "Splice switching activity assay, 24 hr SMC treatment, Examples 4B/4D", "format": "cell-based", "experimental": "(§1) HeLa_Luc705 cells were seeded in 96-well plates at 10,000 cells per well in growth media with 2 μM Luc705-SSO or 1 μM Luc705-SSO. The various SMCs were diluted directly into prepared growth media. After 24 hr to allow adherence and SSO internalization, 10 μl of diluted SMC was added into each well at indicated concentrations. For a positive control, SSOs were complexed with Lipofectamine 2000 for 30 min at RT and cells treated with a final concentration of 200 nM. ON concentrations above 200 nM would require LF2000 to be used in excess of the cells' toxicity threshold. After 24 hr treatment, cells were lysed with 0.1% TritonX-100 (Sigma Aldrich, cat no. X100) in 1× PBS (Gibco, cat no. 10010023).\nFor the detection of luciferase activity, 30 μL of cell lysate was transferred to white-walled plates. The luciferase intensity in each well was immediately measured via luminometer following auto-injection of 25 μL Luciferin substrate as per the Promega Firefly Luciferase Assay System. The timing parameters of photon measurements were optimized for this procedure.\nas §1, with “The” for “HeLa_Luc705 cells were seeded in 96-well plates at 10,000 cells per well in growth media with 2 μM Luc705-SSO or 1 μM Luc705-SSO. The”"}, "HeLa mCherry-Gal9 cells": {"test_system": "HeLa mCherry-Gal9 cells", "assay": "mCherry-GAL9 recruitment assay", "format": "cell-based", "text": "(§2) All compounds were subjected to a mCherry-GAL9 recruitment assay. Under normal conditions, mCherry-GAL9 is homogenously dispersed in the cytosol. When an endosomal leakage event is detected, mCherry-GAL9 translocates to the damaged endosome (Du Rietz et al. (2020) Nat. Commun. 11:1809) The resulting localization pattern of discrete puncta can be visualized and quantitated.\n(§3) HeLa and Huh7 cell lines stably expressing mCherry-GAL9 were generated as described by (bioRxiv) (Munson, M. et al. (2021) Communications Biology, 4(211): 1-14) and seeded into 384-well CellCarrier Ultra plates (PerkinElmer: 6007558) at 3000 or 3500 cells/well respectively, 16 h before experimental usage.\n(§4) Dose-response curves of select compounds were generated using an Echo 655T acoustic dispenser (Labcyte) to dispense the indicated compounds into source plates (Greiner: 781280) containing growth media. At experimental start points, media containing appropriate compounds and doses was transferred to plates using a liquid handling robot (Agilent Bravo).\n(§5) At assay endpoints, cells were washed 2× PBS at RT and fixed in 4% PFA (VWR: 9713.1000) for 15 mins/RT. Cells were washed a further 3× PBS before the addition of PBS+1 μg/ml Hoechst 33342 (ThermoFisher Scientific: H21492) for a minimum of 1 h before imaging.\n(§6) Plates were imaged using a spinning-disk confocal microscope (Yokogawa: CV7000) with a 20× objective (NA 0.75). Images were processed utilizing Columbus image-analysis software (PerkinElmer: v2.9.0) to identify and quantify cells and mCherry-GAL9 structures. The resulting data were processed and normalized in Spotfire (Tibco: v10.3) and plotted in Prism (Graphpad: v8.0.1). Image panels were assembled using the FigureJ plugin for FIJI. (Mutterer and Zinck (2013) J. Microsc. 252(1):89-91).\n(§7) Cells were subjected to a 10-point concentration dilution (0-15 μM) for 2 hours and then fixed and imaged (FIG. 3 and FIG. 4). Images were analyzed and curves were generated from both mCherry-GAL9 puncta quantitation and cell survival as determined by nuclear morphology (FIG. 5). The GAL9 recruitment response support the functional splice-switching data with SSOs, confirming the mCherry-GAL9 assay as a powerful tool for screening endosomolytic compounds and supporting the hypothesis that AZ2467 (Compound 6) and AZ4800 (Compound 2) promote SSO activity by inducing endosomal rupture. The GAL9 assay was again conducted, this time in live cells for 4 hours with select compounds for screening. Compounds were screened at 5 μM (FIG. 6-8) or 0.3125-10 μM (FIG. 35-38). FIG. 39 and FIG. 47 provide results for select compounds at various doses 0.3125-10 μM."}, "Huh7 mCherry-Gal9 cells": {"test_system": "Huh7 mCherry-Gal9 cells", "assay": "mCherry-GAL9 recruitment assay", "format": "cell-based", "text": "as §2, §3, §4, §5, §6, §7"}},
  "note": "Entries after “also recorded” stand apart in the source; their conditions may differ.",
  "data": [
    {"smiles": "COc1nn(C2CCNCC2)cc1Nc1ncc(Cl)c(-n2ccc3c(C#N)cccc32)n1", "note": "[Compound 2]", "values": [
      {"measurement": "particle size profile of oligonucleotide in cell growth media", "setting": "[1]", "result": "No significant differences in particle size; also recorded: no significant changes in particle size profile"},
      {"measurement": "increase in SSO activity", "setting": "HeLa_Luc705 cells; 2 μM Luc 705 SSO, FIG. 26", "result": "induced an increase in SSO activity"},
      {"measurement": "relocalisation of Gal9 from cytosolic to punctate", "setting": "HeLa mCherry-Gal9 cells; 10-point dose titration, 2 hours, FIG. 3", "result": "dose-dependent manner"},
      {"measurement": "endosomal rupture, decrease of 488-SSO puncta", "setting": "HeLa mCherry-Gal9 cells; FIG. 16A", "result": "time and concentration-dependent manner"},
      {"measurement": "quantitation of GAL9 (mCherry-GAL9 puncta)", "setting": "HeLa mCherry-Gal9 cells; FIG. 17A", "result": "time and concentration-dependent responses"},
      {"measurement": "window in concentration between induction of endosomal rupture and cytotoxicity", "setting": "HeLa mCherry-Gal9 cells; HeLa, FIG. 5", "result": "narrow window"},
      {"measurement": "quantitation of Gal9 recruitment over time", "setting": "HeLa mCherry-Gal9 cells; HeLa, FIG. 8", "result": "time-dependent endosomal rupture"},
      {"measurement": "A488-positive structures (A488-SSO) after treatment", "setting": "HeLa mCherry-Gal9 cells; preloaded 1 μM A488-SSO, FIG. 15A", "result": "gradually disappeared over 2 hours"},
      {"measurement": "relocalisation of Gal9 from cytosolic to punctate", "setting": "Huh7 mCherry-Gal9 cells; 10-point dose titration, 2 hours, FIG. 4", "result": "dose-dependent manner"},
      {"measurement": "Gal9 recruitment signal, puncta per relative nuclear signal", "setting": "Huh7 mCherry-Gal9 cells; 60 min, Huh7", "result": "highest overall induced signal"},
      {"measurement": "endosomal rupture, decrease of 488-SSO puncta", "setting": "Huh7 mCherry-Gal9 cells; FIG. 16B", "result": "time and concentration-dependent manner"},
      {"measurement": "quantitation of GAL9 (mCherry-GAL9 puncta)", "setting": "Huh7 mCherry-Gal9 cells; FIG. 17B", "result": "time and concentration-dependent responses"},
      {"measurement": "window in concentration between induction of endosomal rupture and cytotoxicity", "setting": "Huh7 mCherry-Gal9 cells; Huh7, FIG. 5", "result": "narrow window"},
      {"measurement": "quantitation of Gal9 recruitment over time", "setting": "Huh7 mCherry-Gal9 cells; Huh7, FIG. 7", "result": "time-dependent endosomal rupture"},
      {"measurement": "A488-positive structures (A488-SSO) after treatment", "setting": "Huh7 mCherry-Gal9 cells; preloaded 1 μM A488-SSO, FIG. 15B", "result": "gradually disappeared over 2 hours"}
    ]},
    {"smiles": "COc1nn(C2CCNCC2)cc1Nc1ncc(F)c(-n2ccc3c(C#N)cccc32)n1", "note": "[Compound 4]", "values": [
      {"measurement": "increase in SSO activity", "setting": "HeLa_Luc705 cells; 2 μM Luc 705 SSO, FIG. 24", "result": "increase in SSO activity"},
      {"measurement": "increase in SSO activity", "setting": "HeLa_Luc705 cells; 2 μM Luc 705 SSO, FIG. 26", "result": "induced an increase in SSO activity"},
      {"measurement": "increase in SSO activity", "setting": "HeLa_Luc705 cells; 2 μM SSO, FIG. 23A", "result": "increase in SSO activity"},
      {"measurement": "activity of the oligo as compared to oligo only", "setting": "HeLa_Luc705 cells; 2.5 μM compound, 1 μM SSO, FIG. 27", "result": "enhanced activity of the oligo as compared to oligo only"},
      {"measurement": "increase in SSO activity over 1 μM naked SSO", "setting": "HeLa_Luc705 cells; higher concentrations of AZ3327, FIG. 23B", "result": "increase in SSO activity"},
      {"measurement": "GAL9 response, rank among exemplified compounds", "setting": "HeLa mCherry-Gal9 cells; doses 1.25-5 μM, 1, 2, 16 hours, FIG. 34", "result": "most potent response"},
      {"measurement": "GAL9 response, rank", "setting": "Huh7 mCherry-Gal9 cells; 0.25 to 4 hours, 0.31 to 10 μM, FIG. 40", "result": "most potent"},
      {"measurement": "dose from which GAL9+ responses are seen", "setting": "Huh7 mCherry-Gal9 cells; after 15 mins, FIG. 40", "result": "≥ 1.25", "unit": "µM"},
      {"measurement": "GAL9 response, rank among exemplified compounds", "setting": "Huh7 mCherry-Gal9 cells; doses 1.25-5 μM, 1, 2, 16 hours, FIG. 33", "result": "most potent response"}
    ]}
  ]
}
